The text below walks through data of article PMC3504148, “Enteropeptidase: A Gene Associated with a Starvation Human Phenotype and a Novel Target for Obesity Treatment” (PLoS ONE, 2012).

SMILES strings stand for the structures.

Data set [1] has as its system mouse model of diet-induced obesity (DIO). As to the kind of experiment: Long term effect in mice fed with DIO regimen. It is filed as in vivo, male Swiss mice. As to the method: Figure 3 Effect of OBE-2008 administered before night phase on food consumption (left) and body weight (right) in mice. Red = control; dark green = dose of 10 mg/kg/day; light green = dose of 25 mg/kg/day. Number of mice per group n = 10. Statistical comparison between control and treated group were conducted by Dunnett’s tests. Asterisks (*) indicate p values versus control. A p value of<0.05 was considered to show a statistically significant difference.
The anti-obesity effect of OBE lead in a diet induced obesity model (45% kcal from lipids and 20% from proteins, reference 824053 from Special Diet Services, UK) was evaluated following daily oral administration in mice for 63 days. The study involved 3 groups of 10 male Swiss mice; Group 1: water; Group 2: OBE lead at 10 mg/kg/day; Group 3: OBE lead at 25 mg/kg/day. Animal were weighted daily. Food consumption was measured daily for each animal, except during fasted periods. For all groups, the food was given ad libitum. Body weights are given as means ± SEM (Standard Error of the Mean). The effects of test items on body weight and food consumption were expressed as absolute values and compared with those of the vehicle using multiple comparison procedure with a Dunnett’s test in case of significance (P≤0.05).

For data set [2], the system named is fasted mice given oral fat overload. The data set can be described thus: Effect on triglycerides absorption in mouse. Format: in vivo. The note with it: for decrease of fatty acids absorption (plasma triglycerides AUC): up to 6 hours, p<0.05. As to the method:
(§1) Figure 4 The mechanism-based efficacy of OBE-2008 on enteropeptidase was evaluated based on triglycerides (left) and amino acids (right) absorption. Red = control; dark green = dose of 5 mg/kg; light green = dose of 50 mg/kg. Number of mice per group n = 3 (right) for amino acids, and n = 8 (left) for triglycerides. Statistical comparison between control and treated group were conducted by two-sided unpaired Student’s tests. Asterisks (*) indicate p values versus control. A p value of<0.05 was considered to show a statistically significant difference.
The aim of the study was to evaluate the duration of effect of OBE lead on triglycerides absorption in mice after oral administration. The study involved 3 groups of 8 male animals each. Group 1: water; Group 2: OBE lead at 5 mg/kg; Group 3: OBE lead at 50 mg/kg. On the day of the test, all animals were given an oral fat overload. The preparation to be administered (OBE lead or its vehicle) was diluted at 1/100 in 10 mL of clinoleic acid 20. In all animals, about 60 µL were sampled via retro orbital sinus at time points: before dosing, 1, 2, 3, 5 and 6 hours post-dosing. The blood samples were prepared within 30 minutes of sampling by centrifugation for 10 minutes at 1500 g. All plasma samples were dosed for triglycerides. The effects of test items on triglycerides absorption were conducted by two-side unpaired Student’s test. A p value of<0.05 was considered to show a statistically significant difference.

Data set [3] concerns fasted mice given radiolabeled proteins. The data set can be described thus: Effect on 14C-protein absorption in mouse. The note with it: 240 minutes, not statistically significant. Format: in vivo, male Swiss mice. As to the method: as §1
The aim of the study was to evaluate the duration of effect of OBE lead on absorption of ^14C-proteins after oral administration in mice. Fifteen male Swiss mice were divided in 3 groups; Group 1: water and ^14C-proteins; Group 2: OBE lead 5 mg/Kg and ^14C-proteins; Group 3: OBE lead 50 mg/Kg and ^14C-proteins. A preparation containing 5 ml of Clinoleic 20 (Baxter Ref DDB9500) with 1 g of glucose (Sigma; ref:G8270) and 1 g of casein (Sigma; ref: C3400) was prepared. […] About 4 ml Pico-fluor 40 was added and after shaking, the total radioactivity contained within the different samples was determined by liquid scintillation using a Packard 1900 CA spectrometer equipped with an external standard system. […]

Data set [4] in a line: Pharmacokinetics in mice, IV and oral. Format: in vivo, male Swiss mice. As for the experimental part: Figure 5 Pharmacokinetics of OBE-2008 in mice following intravenous (1 mg/kg, dark blue) and oral (10 mg/kg, light blue) dosing. Number of mice per group n = 3.
This study aimed to determine the fate of OBE lead in mice after intravenous (IV; 1 mg/kg) and oral (PO; 10 mg/kg) administration. Blood was taken from two animals at each sampling time from T = 0 to T = 6 h after IV administration, and from T = 0 to T = 24 h after oral administration. Samples were analyzed for OBE lead using LC/MS/MS methodology. For each IV and PO routes, three male Swiss mice aged 10-weeks were included in the experiment. The animals OBE IV-1, OBE IV-2 and OBE IV-3 were treated at T = 0 with 1 mg/kg of OBE lead using 2 mL/kg. The injection was performed in the jugular vein under isoflurane anaesthesia. The animals OBE PO-1, OBE PO-2 and OBE PO-3 were treated at T = 0 with 10 mg/kg of OBE lead using 5 mL/kg. The solution to be administered was delivered by gavage, using a gastric cannula. About 50–75 µL of blood were sampled from the retro orbital sinus. The blood was immediately centrifuged at 3500 rpm (+4°C) for 5 minutes. Protein precipitation was conducted by adding a volume of 400 µL of acetonitrile to 10 µL of plasma in Teflon vials. After centrifugation, an aliquot of the supernatant (+4°C auto-sampler; injected volume = 10 µL) was immediately analyzed by LC/MS/MS (column: HILIC Silica 5 µM 2.1×150 mm; isocratic elution using an ACN/pH3 buffer (70/30, V/V) eluant containing 1% formic acid; flow rate = 0.25 mL/min. The MS system operated in the ESI mode, and the ionization source was heated at 350°C). Chromatographic peaks areas were than calculated and plotted against time.

As to `CC(=O)N[C@@H](C)C(=O)N[C@@H](Cc1ccccc1)C(=O)N[C@@H](CCCCN)B1O[C@@H]2C[C@@H]3C[C@@H](C3(C)C)[C@]2(C)O1` [OBE-2008], the “side effects such as steatorrhea or diarrhea” value in data set [1] (long-term oral treatment) was “no side effects”. For the same molecule, the “reduction of weight gain relative to control group” value in data set [1] (oral 10 mg/kg daily, up to 9 weeks) stood at 6%; in data set [1] (oral 25 mg/kg daily, up to 9 weeks), 10%. The “effect on food consumption” value in data set [1] (oral daily 10 and 25 mg/kg, up to 9 weeks, food ad libitum) is recorded as “no effect”. Besides, in data set [2] (5 mg/kg and 50 mg/kg oral), the “maximum level of triglycerides in plasma after 1 hour vs control” value is listed as “substantially lower than in the control group”. The “decrease of fatty acids absorption (plasma triglycerides AUC)” value in data set [2] (5 mg/kg oral) worked out at 33%; in data set [2] (50 mg/kg oral), 32%. For the same molecule, the entries for the “decrease of total protein absorption (AUC)” value in data set [3] (5 mg/kg oral) and in data set [3] (50 mg/kg oral) were 17% and 22%, respectively. Further, the detectability in plasma result in data set [4] (intravenous 1 mg/kg) is listed as “undetectable after 2 hours”. Further, in data set [4] (intravenous 1 mg/kg), the plasma half-life result is “minutes”. For the same molecule, the calculated bioavailability in data set [4] (oral 10 mg/kg vs intravenous 1 mg/kg) was 2–3%.
